The structures appear in SMILES notation.

The subject of experiment [1] is primary human fibroblasts derived from IPF patients (LL29 cells) treated with TGF-β1. Nature of the experiment: Inhibition of fibrotic process, αSMA staining in TGF-β1 treated LL29 fibroblasts. Type of experiment: cell-based. As to conditions: Fibroblast; for EC50: 96 h, % αSMA positive LL29 cells, TGF-β1 20 ng/mL, 4 days; for inhibition at 10 µM: given where EC50 >10 μM, αSMA, LL29 cells, TGF-β1, read-out: percent inhibition at 10 μM. A digest of the protocol:
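LL29 cells plated in F12 with 1% FBS, compounds added as 11-point 1:2 series (10 μM to 1.87 nM, 0.1% DMSO), then TGF-β1 20 ng/mL; 4 days at 37 °C. Fixed, αSMA immunostained, imaged; SYTOX-positive cells excluded. % αSMA-positive cells normalized to TGF-β1 wells; EC50 by non-linear regression, or % inhibition at 10 μM.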

The test system of experiment [2] is primary human mesenchymal stem cells (hMSCs). Briefly: Chondrogenesis induction in hMSCs (nodule count). The experiment is classed as cell-based. As to conditions: 144 h, hMSC chondrogenesis, 6 days; for Emax: relative to TGF-β3 (10 ng/mL) positive control, read-out: Max. Activity as % TGF-β3 activity; for EC50: concentration required to induce 50% of TGF-β3 level, read-out: Conc. (nM) of 50% TGF-β3 activity. The procedure: Representative compounds were screened using primary human mesenchymal stem cells (hMSCs) to determine their ability to induce chondrogenesis (process by which cartilage is developed).
Primary human mesenchymal stem cells (hMSCs) were purchased from Lonza (Walkersville, Md.) and expanded in Mesenchymal Stem Cell Growth Media (Lonza). Cells between passage 3 and 6 were used for the experiments.
Each compound was dissolved in DMSO as a 10 mM stock and used to prepare compound source plates. Serial dilution (1:3, 6-point dose-response curves from 2700 nM to 10 nM) and compound transfer was performed using the ECHO 550 (Labcyte, Sunnyvale, Calif.) into 96-well clear bottom assay plates (Greiner Bio-One) with appropriate DMSO backfill for a final DMSO concentration of 0.03%. hMSCs were plated at 20,000 cells/well in 250 μL/well Incomplete Chondrogenic Induction Medium (Lonza; DMEM, dexamethasone, ascorbate, insulin-transferrin-selenium [ITS supplement], gentamycin-amphotericin [GA-1000], sodium pyruvate, proline and L-glutamine). TGF-β3 (10 ng/mL) was used as a positive control for differentiation while negative control wells were treated with 75 nL DMSO for normalization and calculating EC50 values. Cells were incubated at 37° C. and 5% CO2 for 6 days. To image chondrogenic nodules, the cells were fixed using 4% formaldehyde (Electron Microscopy Sciences), and stained with 2 μg/mL Rhodamine B (Sigma-Aldrich) and 20 μM Nile Red (Sigma-Aldrich) [Johnson K., et. al, A Stem Cell-Based Approach to Cartilage Repair, Science, (2012), 336(6082), 717-721]. The nodules imaged (4 images per well at 4× magnification) by excitation at 531 nm and emission at 625 nm and quantified using the CellInsight CX5 (Thermo Scientific). Number of nodules in each well was normalized to the average of 3 DMSO treated wells on the same plate using Excel (Microsoft Inc.). The normalized averages (fold change over DMSO) of 3 replicate wells for each compound concentration were calculated. Due to solubility limitations of some of the compounds, curve fitting was incomplete leading to inaccurate EC50 determinations.
Using TGF-β3 as a positive control, the concentration of representative compounds required to induce 50% levels of chondrogenesis is reported. In addition, the maximum activity of each compound and the respective dose that each compound reached maximum chondrogenesis activity is reported.

On to `CN1CCN(c2ccnc3[nH]c(-c4n[nH]c5cnc(-c6cncc(N(C)C)c6)cc45)cc23)CC1` [Compound 231, N,N-Dimethyl-5-(3-(4-(4-methylpiperazin-1-yl)-1H-pyrrolo[2,3-b]pyridin-2-yl)-1H-pyrazolo[3,4-c]pyridin-5-yl)pyridin-3-amine], for which, in experiment [1], the EC50 was more than 10 µM and the inhibition at 10 µM turned out to be 41.8%. Further, the Emax in experiment [2] was 14%.
Molecule `CN1CCN(c2ccnc3[nH]c(-c4n[nH]c5cnc(-c6cncc(CNCC7CCCC7)c6)cc45)cc23)CC1` [Compound 249, 1-Cyclopentyl-N-((5-(3-(4-(4-methylpiperazin-1-yl)-1H-pyrrolo[2,3-b]pyridin-2-yl)-1H-pyrazolo[3,4-c]pyridin-5-yl)pyridin-3-yl)methyl)methanamine] came in with an EC50 in experiment [1] of 6.92 µM. In experiment [2], the EC50 came to 300 nM and the Emax was determined as 150%.
Regarding `CC(C)CC(=O)Nc1cncc(-c2cc3c(-c4cc5cccnc5[nH]4)n[nH]c3cn2)c1` [Compound 254, N-(5-(3-(1H-Pyrrolo[2,3-b]pyridin-2-yl)-1H-pyrazolo[3,4-c]pyridin-5-yl)pyridin-3-yl)-3-methylbutanamide], in experiment [1], the EC50 was 9.98 µM. For the same molecule, the Emax in experiment [2] was found to be 40%.
With `c1cncc(-c2cc3c(-c4cc5cccnc5[nH]4)n[nH]c3cn2)c1` [Compound 256, 5-(Pyridin-3-yl)-3-(1H-pyrrolo[2,3-b]pyridin-2-yl)-1H-pyrazolo[3,4-c]pyridine], the EC50 in experiment [1] was determined as 1.7 µM. For the same molecule, the Emax in experiment [2] was found to be 28%.
`O=C(Nc1cncc(-c2cc3c(-c4cc5cccnc5[nH]4)n[nH]c3cn2)c1)C1CC1` [Compound 272, N-(5-(3-(1H-Pyrrolo[2,3-b]pyridin-2-yl)-1H-pyrazolo[3,4-c]pyridin-5-yl)pyridin-3-yl)cyclopropanecarboxamide] had an EC50 in experiment [1] of 9.98 µM. Further, the Emax in experiment [2] is 18%.
Take `FC1(F)CCN(Cc2cncc(-c3cc4c(-c5cc6cccnc6[nH]5)n[nH]c4cn3)c2)C1` [Compound 278, 5-(5-((3,3-Difluoropyrrolidin-1-yl)methyl)pyridin-3-yl)-3-(1H-pyrrolo[2,3-b]pyridin-2-yl)-1H-pyrazolo[3,4-c]pyridine]: in experiment [1], the EC50 came out at 0.111 µM. The Emax in experiment [2] was 45%.
As for `CCCC(=O)Nc1cncc(-c2cc3c(-c4cc5c(-c6cc(F)cc(NCCN(C)C)c6)ccnc5[nH]4)n[nH]c3cn2)c1` [Compound 465, N-(5-(3-(4-(3-((2-(Dimethylamino)ethyl)amino)-5-fluorophenyl)-1H-pyrrolo [2,3-b]pyridin-2-yl)-1H-pyrazolo[3,4-c]pyridin-5-yl)pyridin-3-yl)butyramide], in experiment [1], the EC50 is more than 10 µM and the inhibition at 10 µM turned out to be 43%. In experiment [2], the EC50 was 10 nM and the Emax was 162%.
Consider `CN(C)CCNc1cc(F)cc(-c2ccnc3[nH]c(-c4n[nH]c5cnc(-c6cncnc6)cc45)cc23)c1` [Compound 475, N^1-(3-Fluoro-5-(2-(5-(pyrimidin-5-yl)-1H-pyrazolo[3,4-c]pyridin-3-yl)-1H-pyrrolo[2,3-b]pyridin-4-yl)phenyl)-N^2,N^2-dimethylethane-1,2-diamine], for which, in experiment [1], the EC50 is more than 10 µM and the inhibition at 10 µM came out at 27.5%. The Emax in experiment [2] worked out at 17%.
On to `CN1CCN(c2ccnc3[nH]c(-c4n[nH]c5cnc(-c6cn[nH]c6)cc45)cc23)CC1` [Compound 635, 3-(4-(4-Methylpiperazin-1-yl)-1H-pyrrolo[2,3-b]pyridin-2-yl)-5-(1H-pyrazol-4-yl)-1H-pyrazolo[3,4-c]pyridine], for which, in experiment [1], the EC50 is more than 10 µM and the inhibition at 10 µM worked out at 44.9%. Besides, in experiment [2], the EC50 came out at 10 nM and the Emax stood at 63%.
`CN1CCN(c2ccnc3[nH]c(-c4n[nH]c5cnc(-c6cncc(NC(=O)CC7CCNCC7)c6)cc45)cc23)CC1` [Compound 641, N-(5-(3-(4-(4-Methylpiperazin-1-yl)-1H-pyrrolo[2,3-b]pyridin-2-yl)-1H-pyrazolo[3,4-c]pyridin-5-yl)pyridin-3-yl)-2-(piperidin-4-yl)acetamide] registered an EC50 in experiment [1] of 4.97 µM. In experiment [2], the EC50 came out at 100 nM and the Emax is 341%.

By inhibition is commonly meant the relative decrease from the control value, in per cent.

Values taken from US10285982B2, “3-(1H-pyrrolo[2,3-B]pyridin-2-yl)-1H-pyrazolo[3,4-C]pyridines and therapeutic uses thereof” (Samumed, LLC, priority 2015, dated 2019).
